# According to patent US7105492B2, “Camptothecin derivatives having antitumor activity” (priority 1999, dated 2006):
# Values joined by “and” are separate entries in the source; they are usually repeats but may differ in a detail not shown here. Identical values can stand only once.
# Tests used:
# topoisomerase i = target: T1, topoisomerase i (Homo sapiens, UniProt P11387); assay: Persistence of topoisomerase I-mediated DNA cleavage after addition of 0.6 M NaCl; assay type: biochemical; details: for Reversibility / persistence of the DNA cleavages (in words): after sodium chloride (0.6 M), about 10 minutes; for PERSISTENCE (%) of DNA cleavage on selected sites: drug 10 μm, 20 minutes incubation, then sodium chloride (0.6 M), examined after about 10 minutes
# T1 sequence (P11387 1-765): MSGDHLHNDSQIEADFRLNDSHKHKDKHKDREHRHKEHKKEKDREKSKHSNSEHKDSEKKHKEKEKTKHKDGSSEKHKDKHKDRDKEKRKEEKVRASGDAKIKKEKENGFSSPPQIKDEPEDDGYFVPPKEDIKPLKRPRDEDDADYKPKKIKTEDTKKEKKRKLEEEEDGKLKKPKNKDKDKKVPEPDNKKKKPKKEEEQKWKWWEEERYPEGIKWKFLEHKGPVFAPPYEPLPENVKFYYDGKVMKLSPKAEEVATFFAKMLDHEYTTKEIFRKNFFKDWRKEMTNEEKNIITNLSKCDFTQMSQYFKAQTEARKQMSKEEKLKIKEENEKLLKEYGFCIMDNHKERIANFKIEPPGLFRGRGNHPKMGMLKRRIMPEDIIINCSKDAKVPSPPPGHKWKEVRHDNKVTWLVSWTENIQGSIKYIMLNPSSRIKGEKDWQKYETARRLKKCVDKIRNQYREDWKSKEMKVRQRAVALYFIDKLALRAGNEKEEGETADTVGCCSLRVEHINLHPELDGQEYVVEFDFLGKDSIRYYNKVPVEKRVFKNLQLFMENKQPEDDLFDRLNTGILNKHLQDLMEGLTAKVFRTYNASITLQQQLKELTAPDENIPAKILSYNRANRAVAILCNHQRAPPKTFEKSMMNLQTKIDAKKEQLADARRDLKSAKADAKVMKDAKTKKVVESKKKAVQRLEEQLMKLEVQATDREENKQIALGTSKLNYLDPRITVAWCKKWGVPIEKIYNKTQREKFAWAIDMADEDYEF
# Experimental: An important drawback of conventional camptothecins is the reversibility of the their bond in the ternary complex (drug-DNA-enzyme).
# After 20 minutes of incubation of the drug in the reaction mixture containing labelled DNA and the purified enzyme, sodium chloride (0.6 M) was added with the scope of assisting the dissociation of the ternary complex.
# [1] = cited from earlier work; for crossing of the hematoencephalic barrier (in words): in vivo
# lung carcinoma NCI H460 = assay: Antitumoral activity in nude mice implanted s.c. with NCI H460 tumour fragments (Table 1); details: q4d × 4; for Efficacy (TVI %): evaluated 5–10 days after the last treatment
# Experimental: For the in vivo studies, the solubilization was carried out in 10% DMSO in bidistilled water, being impossible the solubilization in saline, and the administration for the oral route was carried out at a volume of 10 ml/kg.
# Atimic nu/nu Swiss mice (Charles River, Calco, Italia), ageing 10–12 weeks were used. The animals were maintained in laminar flow rooms, according to the guidelines of the United Kingdom Co-ordination Committee Cancer Research. Experimental protocols were approved by the Ethical Committee for animal experimentation of Istituto Nazionale per lo Studio e Cura dei Tumori.
# Tumour fragments of about 2×2×2 mm coming from mice to which were inoculated s.c. 10^6 cells NCI H460/topo, were implanted s.c. bilaterally in groups of 5 mice each.
# Twice a week, using a Vernier caliper, the width, minimum diameter (l), length and maximum diameter (L) of the tumors were measured, in mm. The tumour volume (mm^3) was calculated according to the formula I^2×L/2. Efficacy of the molecule was evaluated as TVI percent of the treated group versus the control group according to the formula TVI%=100−(T/C×100), wherein T is the mean value of the tumour volume of the treated group and C of control one.
# GBM/7 glioblastoma = assay: Antitumor activity on tumor models: GBM/7; assay type: in vivo, mice; details: GBM/7, 15 mg/kg
# Excerpt: (§1) This broad spectrum of anticancer activity was confirmed in mice transplanted with human tumor xenografts, including NSCLC (H460, A549), prostate ca. (JCA-1), glioblastoma (GBM/7), gastric ca. (MKN28), osteosarcoma (U2OS), ovarian ca. (A2780/Dx, A2780/DDP) and colon (HT29, CoBA) carcinomas as well as in murine lung cancer (M109) and leukaemia model (L1210).
# U87 glioblastoma = assay: Antitumor activity on tumor models: U87; assay type: in vivo, mice; details: U87, 15 mg/kg
# IGROV-1 ovarian ca = assay: Antitumor activity on tumor models: IGROV-1; assay type: in vivo, mice; details: IGROV-1, 15 mg/kg
# A2780 ovarian ca = assay: Antitumor activity on tumor models: A2780; assay type: in vivo, mice; details: A2780, 15 mg/kg
# Excerpt: as §1
# A2780/Dx ovarian ca = assay: Antitumor activity on tumor models: A2780/Dx; assay type: in vivo, mice; details: A2780/Dx, 15 mg/kg
# Excerpt: as §1
# The high cytotoxic potency of the compounds of the present invention, herein represented in an exemplary way with one of the preferrred compounds, CPT 184, is also reflected by the potent antitumor activity. […] Moreover, the compounds of the present invention, in particular the CPT 184, were able to induce 100% CR in the A2780/DX tumor characterized by a MDR-phenotype.
# A2780/DDP ovarian ca = assay: Antitumor activity on tumor models: A2780/DDP; assay type: in vivo, mice; details: 15 mg/kg
# Excerpt: as §1
# JCA-1 prostate ca = assay: Antitumor activity on tumor models: JCA-1; assay type: in vivo, mice; details: JCA-1, 15 mg/kg
# Excerpt: as §1
# H460 = NSCLC = assay: Antitumor activity on tumor models: H460; assay type: in vivo, mice; details: H460, 15 mg/kg
# Excerpt: as §1
# HT29 colon ca = assay: Antitumor activity on tumor models: HT29; assay type: in vivo, mice; details: HT29, 15 mg/kg
# Excerpt: as §1
# DU145 prostate ca = assay: Antitumor activity on tumor models: DU145; assay type: in vivo, mice; details: DU145, 15 mg/kg
# L1210 = murine leukemia = assay: Antitumor activity on tumor models: L1210 leukemia, increase in life span; assay type: in vivo, mice; details: L1210, 15 mg/kg
# Excerpt: as §1
# CoBA colon ca = assay: Antitumor activity on tumor models: CoBA; assay type: in vivo, mice; details: 15 mg/kg
# Excerpt: as §1
smiles,measurement,setting,value
CC[C@@]1(O)C(=O)OCc2c1cc1n(c2=O)Cc2cc3ccccc3nc2-1 [Camptothecin],Reversibility / persistence of the DNA cleavages (in words),topoisomerase i,almost complete reversibility of the cleavages
same,PERSISTENCE (%) of DNA cleavage on selected sites,topoisomerase i,16%
same,crossing of the hematoencephalic barrier (in words),[1],does not cross hematoencephalic barrier in significant amount
"CC[C@@]1(O)C(=O)OCc2c1cc1n(c2=O)Cc2c-1nc1ccccc1c2C=NO [CPT 181, 7-hydroxyiminomethylcamptothecin, reference compound]",PERSISTENCE (%) of DNA cleavage on selected sites,topoisomerase i,28%
same,Toxicity Body weight loss (%),lung carcinoma NCI H460; 15 mg/kg p.o.,0%
same,Toxicity Lethality,lung carcinoma NCI H460; 15 mg/kg p.o.,0/4
same,Efficacy (TVI %),lung carcinoma NCI H460; 15 mg/kg p.o.,40%
same,Toxicity Body weight loss (%),lung carcinoma NCI H460; 25 mg/kg p.o.,0%
same,Toxicity Lethality,lung carcinoma NCI H460; 25 mg/kg p.o.,0/4
same,Efficacy (TVI %),lung carcinoma NCI H460; 25 mg/kg p.o.,70%
"CC[C@@]1(O)C(=O)OCc2c1cc1n(c2=O)Cc2cc3c(CN(C)C)c(O)ccc3nc2-1 [TPT, Topotecan, reference compound]",Reversibility / persistence of the DNA cleavages (in words),topoisomerase i,almost complete reversibility of the cleavages
same,PERSISTENCE (%) of DNA cleavage on selected sites,topoisomerase i,16%
same,TVI %,GBM/7 glioblastoma,96%
same,no evidence of tumor at the end of the treatment lasting for about 10 days from the last administration,GBM/7 glioblastoma,(1/10*)
same,TVI %,U87 glioblastoma,82%
same,TVI %,IGROV-1 ovarian ca,89%
same,TVI %,A2780 ovarian ca,96%
same,Toxicity Lethality,lung carcinoma NCI H460; 10 mg/kg p.o.,0/5
same,Efficacy (TVI %),lung carcinoma NCI H460; 10 mg/kg p.o.,64%
same,Toxicity Lethality,lung carcinoma NCI H460; 15 mg/kg p.o.,0/4 and 0/5
same,Efficacy (TVI %),lung carcinoma NCI H460; 15 mg/kg p.o.,94% and 89%
same,TVI %,A2780/Dx ovarian ca,92%
same,no evidence of tumor at the end of the treatment lasting for about 10 days from the last administration,A2780/Dx ovarian ca,(2/10*)
same,TVI %,A2780/DDP ovarian ca,92%
same,TVI %,JCA-1 prostate ca,95%
same,TVI %,H460 = NSCLC,98%
same,TVI %,HT29 colon ca,65%
same,in the cerebrospinal fluid with respect to plasma,[1]; 10 min after infusion,30%
same,lactone form hydrolysed to open ring,[1]; 30 min after infusion,50%
same,crossing of the hematoencephalic barrier (in words),[1],crosses hematoencephalic barrier
same,TVI %,DU145 prostate ca,77%
same,ILS % = percent increase in life span,L1210 = murine leukemia,39%
same,TVI %,CoBA colon ca,85%
